Data as given in patent US5068247A, “2-aminopentanoic acid compounds and their use as immunosuppressants” (priority 1989, dated 1991).
Values after ≈ are worked out from the molar mass of the structure shown. Read-outs that look alike come from different tables or passages of the source.

How the values were obtained:
Type in all cases: cell-based
[1] = tested on: IL-3 production in PHA-stimulated mouse spleen cells; experiment: suppression of IL-3 production in PHA-stimulated mouse spleen cells; details: for inhibition at 0.001 µg/mL / inhibition at 0.01 µg/mL / inhibition at 0.1 µg/mL / inhibition at 1 µg/mL: Mus musculus, 24 h, read-out: Suppression
Procedure: (§1) The suppression of IL-2 and IL-3 production in the mitogen-stimulated mouse spleen cells was examined as follows:
(§2) The spleen was resected from 5- to 8-week-old male C3H/HeN mice, and a single cell suspension of spleen cells was prepared by using the RPMI1640 culture medium. After hemolytic treatment, the concentration of the suspension was adjusted to 10^7 cells/ml by using the RPMI1640 culture medium supplemented with 20% FCS, to which 10 μg/ml of phytohemagglutinin (PHA) was added as mitogen. […] After termination of culture, the supernatant was collected and used as the culture supernatant of PHA-stimulated mouse spleen cells.
The IL-3 activity was assayed as follows:
IL-3-dependent mouse cell line FDC-P2 cells were suspended in the RPMI1640 culture medium supplemented with 10% FCS to the concentration of 2×10^5 cells/ml. One hundred μl of the cell suspension and 100 μl of the two-fold serial dilution of the culture supernatant of PHA-stimulated mouse spleen cells described above were added to a 96-well flat-bottomed microtest plate. […] The IL-3 activity is expressed in U/ml as the dilution at which the absorbancy measured by MTT method was 50% of the maximum.

[2] = tested on: mouse allogenic MLR (BALB/c mouse spleen cells stimulated with C57BL/6 mouse spleen cells); experiment: mouse allogenic mixed lymphocyte reaction (MLR), 3H-thymidine uptake
Procedure: The immunosuppressive activity of the compounds was assayed on the basis of mouse allogenic mixed lymphocyte reaction (hereinafter sometimes abbreviated as MLR). Mouse allogenic MRL was carried out using a mixed culture of BALB/c mouse (H-2^d) spleen cells as the responder cells and mitomycin C-treated C57BL/6 ([…]) mouse spleen cells as the stimulator cells in equal amounts.
The responder cells were prepared as follows:
The spleen was resected from 5- to 6-week-old BALB/c mice, and single cell suspension of spleen cells was prepared by using the RPMI1640 culture medium (containing 60 μg/ml of kanamycin sulfate, 2 mM of L-glutamine, 10 mM of N-2-hydroxyethylpiperazine-N'-2-ethanesulphonate (HEPES) and 0.1% sodium hydrogencarbonate) to which heat-inactivated fetal calf serum (hereinafter sometimes abbreviated as FCS) had been added to 5%. After hemolytic treatment, the cell suspension was adjusted to a concentration of 10^7 cells/ml with the RPMI1640 culture medium supplemented with 10^-4 M 2-mercapto-ethanol and 20% FCS, and was used as the responder cell suspension.
The stimulator cells were prepared as follows: The spleen was resected from 5- to 6-week-old male C57BL/6 mice, and a single cell suspension of spleen cells was prepared by using the RPMI1640 culture medium. After hemolytic treatment, the cells were treated with 40 μg/ml of mitomycin C at 37° C. for 60 minutes. After washing three times, the cell suspension was adjusted to a concentration of 10^7 cells/ml with the RPMI1640 culture medium supplemented with 10^-4 M 2-mercapto-ethanol and 20% FCS, and was used as the stimulator cell suspension.
The blastogenesis of lymphocytes was assayed using ^3 H-thymidine uptake as an index. That is, after termination of culture, 18.5 KBq/well of ^3 H-thymidine was added thereto and the suspension was cultured for 4 hours. Cells were harvested by a cell-harvester, and the radioactivity incorporated into the cells was determined by a liquid scintillation counter, which was used as an index of blastogenesis of lymphocytes in the mouse allogenic MLR. The suppression of the mouse allogenic MLR was evaluated by calculating the percent suppression by the following formula.
The test substance dissolved in methanol was diluted with the RPMI1640 culture medium and put to use.

[3] = tested on: IL-2 production in PHA-stimulated mouse spleen cells; experiment: suppression of IL-2 production in PHA-stimulated mouse spleen cells; details: for inhibition at 0.001 µg/mL / inhibition at 0.01 µg/mL / inhibition at 0.1 µg/mL / inhibition at 1 µg/mL: Mus musculus, 24 h, read-out: Suppression
Procedure: as §1, §2
The IL-2 activity in the culture supernatant of PHA-stimulated mouse spleen cells was assayed as follows:
IL-2 dependent mouse cell line CTLL-2 cells were suspended in the RPMI1640 culture medium supplemented with 30% FCS to the concentration of 2×10^5 cells/ml. One hundred μl of the cell suspension and 100 μl of the two-fold serial dilution of the culture supernatant of PHA-stimulated mouse spleen cells were added to a 96-well flat-bottomed microtest plate. […] The IL-2 activity is expressed in U/ml as the dilution at which the absorbancy measured by MTT method was 50% of the maximum.

[4] = tested on: CTLL-2 cells; experiment: suppression of proliferation of IL-2-dependent mouse cell line CTLL-2 induced by IL-2; details: IL-2 50 U/ml; for inhibition at 0.001 µg/mL / inhibition at 0.01 µg/mL / inhibition at 0.1 µg/mL / inhibition at 1 µg/mL: Mus musculus, CTLL-2, 68 h
Procedure: IL-2-dependent mouse cell line CTLL-2 cells were suspended in the RPMI1640 culture medium supplemented with 30% FCS to the concentration of 4×10^5 cells/ml. Fifty μl of the cell suspension, 50 μl of 200 U/ml recombinant human IL-2 (rhIL-2) and 100 μl of the test substance were added to a 96-well flat-bottomed microtest plate. […] The percent suppression (%) was calculated by the following formula. [formula]

[5] = Mus musculus, Lymphocyte, read-out: Suppression

`CCCCCCC(O)C=CCCCCC=CCC(O)C(O)C(N)(CO)C(=O)O` (stereo not shown) [Example 1] was tested, and the IL-3 activity ([1]; 0.001 μg/ml) was 34.3 U/ml, the IL-3 activity ([1]; 0.01 μg/ml) was 27.9 U/ml and the IL-3 activity ([1]; 0.1 μg/ml) was 12.2 U/ml. It also gave an IL-3 activity ([1]; 1 μg/ml) of 10.5 U/ml, an inhibition at 0.001 µg/mL ([1]; 0.001 μg/ml) of 6.8% and an inhibition at 0.01 µg/mL ([1]; 0.01 μg/ml) of 24.2%. The inhibition at 0.1 µg/mL ([1]; 0.1 μg/ml) was 66.8%, the inhibition at 1 µg/mL ([1]; 1 μg/ml) was 71.5% and the 3H-thymidine uptake ([2]; 0.0001 μg/ml; Table 1A) was 17985 cpm. It also gave a 3H-thymidine uptake ([2]; 0.001 μg/ml; Table 1A) of 13566 cpm, a 3H-thymidine uptake ([2]; 0.01 μg/ml; Table 1A) of 11016 cpm and a 3H-thymidine uptake ([2]; 0.1 μg/ml; Table 1A) of 1020 cpm. The 3H-thymidine uptake ([2]; 1 μg/ml; Table 1A) was 919 cpm, the inhibition at 0.0001 µg/mL ([2]; Mus musculus, Lymphocyte, 0.0001 μg/ml; Table 1A; read-out: Suppression) was 2.7% and the inhibition at 0.001 µg/mL ([2]; Mus musculus, Lymphocyte, 0.001 μg/ml; Table 1A; read-out: Suppression) was 29%. It also gave an inhibition at 0.01 µg/mL ([2]; Mus musculus, Lymphocyte, 0.01 μg/ml; Table 1A; read-out: Suppression) of 44.1%, an inhibition at 0.1 µg/mL ([2]; Mus musculus, Lymphocyte, 0.1 μg/ml; Table 1A; read-out: Suppression) of 100% and an inhibition at 1 µg/mL ([2]; Mus musculus, Lymphocyte, 1 μg/ml; Table 1A; read-out: Suppression) of 100%. The IC50 ([2]; Mus musculus, Lymphocyte; read-out: 50%-inhibition concentration (IC50) in mouse allogenic MLR) was 0.013 µg/mL (≈ 0.0324 µM), the IL-2 activity ([3]; 0.001 μg/ml) was 13.9 U/ml and the IL-2 activity ([3]; 0.01 μg/ml) was 6.1 U/ml. The IL-2 activity ([3]; 0.1 μg/ml) was 3.7 U/ml, the IL-2 activity ([3]; 1 μg/ml) was 2.0 U/ml and the inhibition at 0.001 µg/mL ([3]; 0.001 μg/ml) was 0%. It also gave an inhibition at 0.01 µg/mL ([3]; 0.01 μg/ml) of 49.6%, an inhibition at 0.1 µg/mL ([3]; 0.1 μg/ml) of 69.4% and an inhibition at 1 µg/mL ([3]; 1 μg/ml) of 83.5%. The “optical density (OD570)” value ([4]; 0.001 μg/ml, Table 6A) was 0.508, the “optical density (OD570)” value ([4]; 0.01 μg/ml, Table 6A) was 0.556 and the “optical density (OD570)” value ([4]; 0.1 μg/ml, Table 6A) was 0.009. For the same compound, the “optical density (OD570)” value ([4]; 1 μg/ml, Table 6A) was 0.005, the inhibition at 0.001 µg/mL ([4]; 0.001 μg/ml, Table 6A, read-out: Suppression) was 13.3% and the inhibition at 0.01 µg/mL ([4]; 0.01 μg/ml, Table 6A, read-out: Suppression) was 5.1%. For the same compound, the inhibition at 0.1 µg/mL ([4]; 0.1 μg/ml, Table 6A, read-out: Suppression) was 98.6% and the inhibition at 1 µg/mL ([4]; 1 μg/ml, Table 6A, read-out: Suppression) was 99.3%.

Compound `CCCCCCCCCCCCCCCC[C@@H](O)[C@H](O)[C@@](N)(CO)C(=O)O` [Example 2] has an IL-3 activity ([1]; 0.001 μg/ml) of 26.0 U/ml, an IL-3 activity ([1]; 0.01 μg/ml) of 13.9 U/ml and an IL-3 activity ([1]; 0.1 μg/ml) of 11.3 U/ml. For the same compound, the IL-3 activity ([1]; 1 μg/ml) was 7.5 U/ml, the inhibition at 0.001 µg/mL [1] was 29.3% and the inhibition at 0.01 µg/mL [1] was 62.2%. It also gave an inhibition at 0.1 µg/mL [1] of 69.3%, an inhibition at 1 µg/mL [1] of 79.6% and a 3H-thymidine uptake ([2]; 0.001 μg/ml; Table 1A) of 17981 cpm. It also gave a 3H-thymidine uptake ([2]; 0.01 μg/ml; Table 1A) of 12011 cpm, a 3H-thymidine uptake ([2]; 0.1 μg/ml; Table 1A) of 2329 cpm and a 3H-thymidine uptake ([2]; 1 μg/ml; Table 1A) of 1869 cpm. It also gave an IC50 ([2]; Mus musculus, Lymphocyte, read-out: 50%-inhibition concentration (IC50) in mouse allogenic MLR) of 0.016 µg/mL (≈ 0.0411 µM), an inhibition at 0.001 µg/mL [2, 5] of 2.7% and an inhibition at 0.01 µg/mL [2, 5] of 38.2%. It also gave an inhibition at 0.1 µg/mL [2, 5] of 95.8%, an inhibition at 1 µg/mL [2, 5] of 98.6% and an IL-2 activity ([3]; 0.001 μg/ml) of 12.1 U/ml. For the same compound, the IL-2 activity ([3]; 0.01 μg/ml) was 7.0 U/ml, the IL-2 activity ([3]; 0.1 μg/ml) was 6.1 U/ml and the IL-2 activity ([3]; 1 μg/ml) was 3.7 U/ml. It also gave an inhibition at 0.001 µg/mL [3] of 0%, an inhibition at 0.01 µg/mL [3] of 42.1% and an inhibition at 0.1 µg/mL [3] of 49.6%. The inhibition at 1 µg/mL [3] was 69.4%, the “optical density (OD570)” value ([4]; 0.001 μg/ml, Table 6A) was 0.555 and the “optical density (OD570)” value ([4]; 0.001 μg/ml, Table 6B) was 0.898. For the same compound, the “optical density (OD570)” value ([4]; 0.01 μg/ml, Table 6A) was 0.543, the “optical density (OD570)” value ([4]; 0.01 μg/ml, Table 6B) was 0.880 and the “optical density (OD570)” value ([4]; 0.1 μg/ml, Table 6A) was 0.558. For the same compound, the “optical density (OD570)” value ([4]; 0.1 μg/ml, Table 6B) was 0.774, the “optical density (OD570)” value ([4]; 1 μg/ml, Table 6A) was 0.161 and the “optical density (OD570)” value ([4]; 1 μg/ml, Table 6B) was 0.508. It also gave an inhibition at 0.001 µg/mL ([4]; read-out: Suppression, 0.001 μg/ml, Table 6A) of 5.3%, an inhibition at 0.001 µg/mL ([4]; read-out: Suppression, 0.001 μg/ml, Table 6B) of 6.7% and an inhibition at 0.01 µg/mL ([4]; read-out: Suppression, 0.01 μg/ml, Table 6A) of 7.4%. It also gave an inhibition at 0.01 µg/mL ([4]; read-out: Suppression, 0.01 μg/ml, Table 6B) of 8.7%, an inhibition at 0.1 µg/mL ([4]; read-out: Suppression, 0.1 μg/ml, Table 6A) of 4.8% and an inhibition at 0.1 µg/mL ([4]; read-out: Suppression, 0.1 μg/ml, Table 6B) of 20%. The inhibition at 1 µg/mL ([4]; read-out: Suppression, 1 μg/ml, Table 6A) was 72.6% and the inhibition at 1 µg/mL ([4]; read-out: Suppression, 1 μg/ml, Table 6B) was 48.4%.
